pIC50: −log10 of the molar value. Marks after values point to notes of the source that are not given here.
What was measured:
[1] = test system: mechanical hyperalgesia in rats subjected to partial sciatic nerve ligation; assay: Seltzer model (partial sciatic nerve ligation) of neuropathic pain, paw pressure assay (PWT); assay type: in vivo, rat; conditions: for % Reversal [mean]: rat Seltzer model, oral 10 mg/kg; for maximum analgesic efficacy of pregabalin (10 mg/kg) as fraction of % reversal of Compound B9a: 3 hours after day 1 administration
[2] = target: human CYP2D6 (Homo sapiens, UniProt P10635); assay: Cytochrome P450 2D6 inhibition (dextromethorphan O-demethylation, pooled human hepatic microsome)
human CYP2D6, sequence (P10635 whole entry): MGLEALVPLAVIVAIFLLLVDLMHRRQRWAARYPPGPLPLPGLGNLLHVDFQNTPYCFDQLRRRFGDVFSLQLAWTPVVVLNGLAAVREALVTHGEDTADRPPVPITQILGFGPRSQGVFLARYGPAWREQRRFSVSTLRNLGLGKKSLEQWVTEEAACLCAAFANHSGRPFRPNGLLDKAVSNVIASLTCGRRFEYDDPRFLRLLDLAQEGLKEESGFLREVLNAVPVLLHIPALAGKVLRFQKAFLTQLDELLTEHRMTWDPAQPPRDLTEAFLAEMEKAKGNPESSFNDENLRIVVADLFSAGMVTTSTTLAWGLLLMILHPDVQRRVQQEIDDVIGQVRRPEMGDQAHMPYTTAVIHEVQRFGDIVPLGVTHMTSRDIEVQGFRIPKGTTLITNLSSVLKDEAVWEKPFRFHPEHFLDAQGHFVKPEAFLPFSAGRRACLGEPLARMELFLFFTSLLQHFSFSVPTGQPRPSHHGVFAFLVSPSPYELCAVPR

Structure (SMILES): CC(C)C[C@H](CN)CC(=O)O [Pregabalin, pregabalin, reference compound]
- % Reversal [mean] ([1]; positive control column, 3 h after administration (day 1), 10 mg/kg): 28.0** %
- % Reversal [mean] ([1]; positive control column, 3 h after administration (day 1), listed as pregabalin, 10 mg/kg): 28.0%
- % Reversal [mean] ([1]; positive control, 1 h after administration (day 1)): 17.0%
- % Reversal [mean] ([1]; positive control, 5 h after administration (day 1)): 15.0%
- % Reversal [mean] ([1]; positive control, pre-administration): 0%
- maximum analgesic efficacy of pregabalin (10 mg/kg) as fraction of % reversal of Compound B9a ([1]; versus B9a 1 mg/kg): about 0.76
- maximum analgesic efficacy of pregabalin (10 mg/kg) as fraction of % reversal of Compound B9a ([1]; versus B9a 3 mg/kg): about 0.61
- maximum analgesic efficacy of pregabalin (10 mg/kg) as fraction of % reversal of Compound B9a ([1]; versus B9a 10 mg/kg): about 0.46

Structure (SMILES): O=c1cncc(-c2nc3ccccc3n([C@H]3C[C@H]4CCC[C@@H](C3)N4[C@H]3C[C@@H]4CCC[C@@H](C4)C3)c2=O)[nH]1 [R3a(i), 1-((1R,1′R,3r,3′R,5S,5′S)-[3,9′-bi(9′-azabicyclo[3.3.1]nonan)]-3′-yl)-3-(6-oxo-1,6-dihydropyrazin-2-yl)quinoxalin-2(1H)-one]
- pIC50 [2]: < 4.70

Structure (SMILES): O=c1[nH]nc(-c2nc3ccccc3n([C@H]3C[C@H]4CCC[C@@H](C3)N4[C@H]3C[C@@H]4CCC[C@@H](C4)C3)c2=O)[nH]1 [R6a(i)(i), 1-((1R,1′R,3r,3′R,5S,5′S)-[3,9′-bi(9′-azabicyclo[3.3.1]nonan)]-3′-yl)-3-(5-oxo-4,5-dihydro-1H-1,2,4-triazol-3-yl)quinoxalin-2(1H)-one]
- pIC50 [2]: < 4.70

Structure (SMILES): O=C(O)Cn1cccc(-c2nc3ccccc3n([C@H]3C[C@H]4CCC[C@@H](C3)N4[C@H]3C[C@@H]4CCC[C@@H](C4)C3)c2=O)c1=O [R15a(iii), 2-(3-(4-((1R,1′R,3r,3′R,5S,5′S)-[3,9′-bi(9′-azabicyclo[3.3.1]nonan)]-3′-yl)-3-oxo-3,4-dihydroquinoxalin-2-yl)-2-oxopyridin-1(2H)-yl)acetic acid]
- pIC50 [2]: < 4.70

Structure (SMILES): C[C@@H]1C[C@@H]2C[C@H](C1)C[C@@H](N1[C@@H]3CCC[C@H]1C[C@@H](n1c(=O)c(-c4cc(C(=O)O)c[nH]c4=O)nc4ccccc41)C3)C2 [R28a(i), 5-(4-((1R,1′R,3r,3′R,5S,5′S,7S)-7-methyl-[3,9′-bi(9′-azabicyclo[3.3.1]nonan)]-3′-yl)-3-oxo-3,4-dihydroquinoxalin-2-yl)-6-oxo-1,6-dihydropyridine-3-carboxylic acid]
- pIC50 [2]: < 4.70

Structure (SMILES): CC1(C)[C@H]2CC[C@@H](CCN3[C@@H]4CCC[C@H]3C[C@@H](n3c(=O)c(-c5ccc[nH]c5=O)nc5ccccc53)C4)[C@@H]1C2 [U55a(i), 1-((1R,3S,5S)-9-(2-((1S,2S,5S)-6,6-dimethylbicyclo[3.1.1]heptan-2-yl)ethyl)-9-azabicyclo[3.3.1]nonan-3-yl)-3-(2-oxo-1,2-dihydropyridin-3-yl)quinoxalin-2(1H)-one]
- pIC50 [2]: < 4.70
